What was measured:
[1] = Body weight of TgSOD1 mice; assay type: in vivo; conditions: TgSOD1-Cromolyn vs TgSOD1-Vehicle
Protocol: Beginning at P50, weight and neurological score (using the ALS TDI criteria) (Hatzipetros, T., et al. (2015). “A Quick Phenotypic Neurological Scoring System for Evaluating Disease Progression in the SOD1-G93A Mouse Model of ALS.” J Vis Exp(104); Leitner M., et. al. (2009). “Working with ALS mice: Guidelines for preclinical testing & colony management.” The Jackson Laboratory) were recorded for each mouse every 5 days until death or euthanasia. ALS TDI criteria are as follows: • Score of 0: Full extension of hind legs away from lateral midline when mouse is suspended by its tail, and mouse can hold this for two seconds, suspended two to three times. • Score of 1: Collapse or partial collapse of leg extension towards lateral midline (weakness) or trembling of hind legs during tail suspension. • Score of 2: Toes curl under at least twice during walking of 12 inches, or any part of foot is dragging along cage bottom/table. • Score of 3: Rigid paralysis or minimal joint movement, foot not being used for generating forward motion. • Score of 4: Mouse cannot right itself within 15 seconds after being placed on either side. *Mice were euthanized upon obtaining a score of 4. […]

SOD1^G93A mouse model = test: Survival; assay type: in vivo, mice; conditions: Mantel-Cox test
Protocol: 149 mice were used in this study. All animal care, husbandry and experimentation were performed according to the guidelines set by the Massachusetts General Hospital Subcommittee on Research Animal Care. These experiments were approved by the Massachusetts General Hospital Institutional Animal Care and Use Committee (2014N000018). All mice were given access to food and water ad libitum. Mice were assessed regularly for motor impairment and euthanized upon onset of major paralysis (neurological scoring=4, see Neurological Score below) to minimize suffering as described previously. […] The endpoint used in this study was based on previously reported criteria by ALS TDI, the loss of self-righting ability within 15 seconds (neurological score=4) or the inability to move to reach food on the cage floor. Mice that reached the humane endpoint were euthanized within 3 hours.
149 male and female age- and litter-matched transgenic (Tg) SOD1^G93A and wild-type (Wt) SOD1^G93A mice were used with the following breakdown: Females (19 WtSOD1-Vehicle, 17 WtSOD1-Cromolyn, 19 TgSOD1-Vehicle, and 17 TgSOD1-Cromolyn) and Males (18 WtSOD1-Vehicle, 21 WtSOD1-Cromolyn, 21 TgSOD1-Vehicle, 17 TgSOD1-Cromolyn).

SOD1 gene = conditions: in vitro studies; cited from earlier work
[2] = test system: pro-inflammatory cytokines and chemokines in plasma; test: Meso Scale Discovery multi-spot cytokine assay, plasma; assay type: in vivo, mice
Protocol: Spinal cord frozen tissue was homogenized in ice-cold RIPA buffer (Thermo Fisher Scientific, #8990) supplemented with protease inhibitor cocktail (Thermo Fisher Scientific, #78430). Samples were centrifuged at 45,000 g for 30 minutes at 4° C. using an Optima TL ultracentrifuge and a TLA 120.2 rotor (Beckman Coulter). Expression levels of 10 pro-inflammatory cytokines and chemokines were assessed in the supernatants derived from spinal cord tissue or in the plasma, using an electrochemiluminescence-based multi-array method and MESO Quickplex SQ 120 system (MSD, Rockville, Md., USA). The 96-well V-PLEX Proinflammatory Mouse 1 Kit (Meso Scale Discovery, #K15048D) was used to measure simultaneously IFN-γ, IL-1β, IL-2, IL-4, IL-5, IL-6, CXCL1/KC/GRO, IL-10, IL-12, p70, and TNFα, following the manufacturer's instructions. Briefly, samples were diluted in the calibrator and added to the plate coated with an array of cytokine capture antibodies. Samples were incubated in the plate for 2 hours with shaking at room temperature, followed by washes with the wash buffer provided in the kit. The detection antibody solution was added to each well and the plate was incubated for 2 hours. The plate was washed with the wash buffer and the 2× Read Buffer T was added. The signal was immediately measured on a MESO QuickPlex SQ 120 instrument and was analyzed using the DISCOVERY WORKBENCH 4.0 software (Meso Scale Diagnostics, LLC., Rockville, Md., USA). Protein concentrations in the supernatants or the plasma samples were measured using the Pierce BCA protein assay kit (Thermo Scientific). Values in the graphs represent levels of cytokines normalized to the corresponding protein concentrations. […] Females (19 WtSOD1-Vehicle, 17 WtSOD1-Cromolyn, 19 TgSOD1-Vehicle, and 17 TgSOD1-Cromolyn) and Males (18 WtSOD1-Vehicle, 21 WtSOD1-Cromolyn, 21 TgSOD1-Vehicle, 17 TgSOD1-Cromolyn). […] The same pro-inflammatory panel from Meso Scale Discovery was used to assess the levels of cytokines and chemokines in the plasma of a subset of mice (Females: 13 WtSOD1-Vehicle, 15 WtSOD1-Cromolyn, 6 TgSOD1-Vehicle, and 6 TgSOD1-Cromolyn; and Males: 14 WtSOD1-Vehicle, 10 WtSOD1-Cromolyn, 6 TgSOD1-Vehicle, 3 TgSOD1-Cromolyn). We were able to measure 7 of the 10 pro-inflammatory cytokines in plasma which included IL-1β, IL-2, IL-5, IL-6, CXCL1, IL-10, and TNFα.

MCP-1 = test: CCL2/MCP-1 ELISA assay; assay type: in vivo, mice
Protocol: Spinal cord tissue was homogenized, and supernatants were derived as described in the section related to the Meso Scale Discovery cytokine assay. MCP-1 levels were measured in the supernatants generated from spinal cord tissue or in the plasma using the 96-well Mouse CCL2/JE/MCP-1 Quantikine ELISA Kit (R&D systems, #MJE00B), following the manufacturer's instructions. Briefly, samples and diluted standards were added to the plate coated with MCP-1-specific antibody. Samples were incubated in the plate for 2 hours on a shaker at room temperature, followed by washes with the wash buffer provided in the kit. Subsequently, horseradish peroxidase conjugated antibody against MCP-1 was added to each well and incubated for 2 hours at room temperature on the shaker. The plate was washed with the wash buffer and incubated with Substrate solution for 30 minutes at room temperature. Next, Stop solution was added and the signal was read on a Microplate reader (Synergy 2, Biotek Instruments). The optical density was measured at […] and was corrected with the optical density measured at 540 nm. MCP-1 levels in the samples were calculated based on the MCP-1 standard curve. Protein concentrations in the supernatants were measured by the Pierce BCA protein assay kit (Thermo Scientific). Values in the graphs represent levels of MCP-1 normalized to the corresponding protein concentrations. […]

O=C(O)c1cc(=O)c2c(OCC(O)COc3cccc4oc(C(=O)O)cc(=O)c34)cccc2o1 [cromolyn, cromolyn sodium]
body weight ([1]; 6.3 mg/kg i.p. once daily 5 days per week from P60, overall): did not impact body weight
body weight ([1]; 6.3 mg/kg i.p., all mice, at P130): significant improvement in body weight
survival (SOD1^G93A mouse model; all treated mice, p=0.1096): did not have a significant effect on survival
survival (SOD1^G93A mouse model; female mice, p=0.01): significant effect of treatment on female survival
survival (SOD1^G93A mouse model; male mice alone, p<0.8831): did not have a significant effect on survival
effect on SOD1 gene (SOD1 gene): inhibits the SOD1 gene
IL-10 levels in plasma ([2]; TgSOD1-Cromolyn vs TgSOD1-Vehicle, p=0.0095): significantly decreased
IL-2 levels in plasma ([2]; TgSOD1-Cromolyn vs TgSOD1-Vehicle, p=0.0211): significantly decreased
IL-6 levels in plasma ([2]; TgSOD1-Cromolyn vs TgSOD1-Vehicle, p=0.0273): significantly decreased
TNFα levels in plasma ([2]; TgSOD1-Cromolyn vs TgSOD1-Vehicle, p=0.110): trend towards a decrease
IL-1β levels in plasma ([2]; between groups): no statistically significant difference
IL-5 levels in plasma ([2]; between groups): no statistically significant difference
MCP-1 levels in the spinal cord (MCP-1; TgSOD1-Cromolyn vs TgSOD1-Vehicle): no effect of cromolyn treatment on MCP-1 levels
MCP-1 levels in the plasma (MCP-1; any of the groups): not altered
